From article PMC10329608, “Investigation of the structure-activity relationship at the N-terminal part of minigastrin analogs” (EJNMMI Research, 2023)
“Also recorded” adds a separate entry of the source. Where two headings read alike, the source gives them in different places. Starred links: 1 amine or outer side, 2 acyl side, 3 side chain; linkers in the order of their positions; H or OH if unused. Non-standard residues stand in square brackets, D forms with d. Residues, ends and D or L forms follow the SMILES beside them. *: point of attachment. DOTA = O=C(O)CN1CCN(CC(=O)O)CCN(CC(=O)*)CCN(CC(=O)O)CC1; d(γGlu) = O=C(O)[C@@H](CCC(=O)[*:2])N[*:1]; 1Nal = N[C@@H](Cc1cccc2ccccc12)C(=O)O; 2Nal = N[C@@H](Cc1ccc2ccccc2c1)C(=O)O; PEG5 = NCCOCCOCCOCCOCCOCCC(=O)O; NMeNle = CCCC[C@H](NC)C(=O)O; Nle = CCCC[C@H](N)C(=O)O

Columns and labels:
CCK-2R = molecular target: T1, CCK-2R (Rattus norvegicus, UniProt P30553); experiment: Competitive binding (IC50) on AR42J cells against [177Lu]Lu-DOTA-PP-F11N; settings: for IC50 / CCK-2R affinity (in words): AR42J cells; for IC50: 3 h; for CCK-2R affinity (in words): tetrapeptides; for fold elevated IC50 value versus N-methylated tetrapeptides: B1 versus B3, B5 and B7 versus B3, B4 and B6
T1 construct: endogenous in cells; host or cells: AR42J cells
T1 sequence (P30553 1-452): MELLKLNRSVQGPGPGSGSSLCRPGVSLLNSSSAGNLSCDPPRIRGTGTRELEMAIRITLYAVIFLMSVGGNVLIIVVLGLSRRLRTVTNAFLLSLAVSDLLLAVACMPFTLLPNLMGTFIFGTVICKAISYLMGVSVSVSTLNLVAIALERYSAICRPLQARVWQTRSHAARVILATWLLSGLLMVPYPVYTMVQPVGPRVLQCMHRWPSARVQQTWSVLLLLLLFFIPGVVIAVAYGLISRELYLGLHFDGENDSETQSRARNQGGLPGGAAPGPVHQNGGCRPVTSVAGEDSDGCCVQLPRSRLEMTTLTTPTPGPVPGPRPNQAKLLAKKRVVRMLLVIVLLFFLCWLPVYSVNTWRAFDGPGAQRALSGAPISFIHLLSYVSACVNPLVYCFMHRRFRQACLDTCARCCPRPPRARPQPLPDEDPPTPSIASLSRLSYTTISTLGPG
Description: IC50 values of all compounds were determined according to a previously published procedure. In brief, competitive binding studies were performed via co-incubation of increasing concentrations of the peptide of interest (10^−10 to 10^–4 M, in triplicate) together with the reference compound [^177Lu]Lu-DOTA-PP-F11N (0.3 pmol/well) on AR42J cells (2 × 10^5 cells per 1 mL/well) at 37 °C for 3 h. Table S1. CCK-2R affinity and lipophilicity data of the compounds evaluated. Affinity data were determined on AR42J cells (2.0 x 10^5 cells/well/mL) and [^177Lu]Lu-DOTA-PP-F11N (0.3 pmol/well) as radiolabeled reference (3 h, 37°C, RPMI 1640, 5 mM L-Gln, 5 mL non-essential amino acids (100x), 10% FCS + 5% BSA (v/v)).

[1] = format: physicochemical; settings: pH 7.4
Description: Lipophilicity (depicted as n-octanol-phosphate-buffered saline solution (PBS, pH = 7.4) distribution coefficient, logD7.4) of ^177Lu-labeled minigastrin analogs was evaluated as previously published.

[2] = 2.0 x 10^5 cells/well/mL, [177Lu]Lu-DOTA-PP-F11N 0.3 pmol/well as reference, 37°C, natLu-labeled DOTA peptides, tetrapeptides unlabeled, read-out: IC50

SMILES | logD [1] | logD7.4 [1] | also measured
CCCC[C@H](NC(=O)[C@@H](N)Cc1c[nH]c2ccccc12)C(=O)N[C@@H](CC(=O)O)C(=O)N[C@@H](Cc1ccccc1)C(N)=O [B2, H-Trp-Nle-Asp-Phe-NH2] (H-W[Nle]DF-NH2) | – | – | IC50 (CCK-2R; [2]): 466 ± 88 nM; CCK-2R affinity (in words) (CCK-2R): significant loss in CCK-2R affinity; CCK-2R affinity (in words) (CCK-2R; listed as H-Trp-Nle-Asp-Phe-NH2): noticeably decreased CCK-2R affinity
CCCC[C@@H](C(=O)N[C@@H](CC(=O)O)C(=O)N[C@@H](Cc1ccc2ccccc2c1)C(N)=O)N(C)C(=O)[C@@H](N)Cc1c[nH]c2ccccc12 [B5, H-Trp-(N-Me)Nle-Asp-2-Nal-NH2] (H-W[NMeNle]D[2Nal]-NH2) | – | – | fold elevated IC50 value versus N-methylated tetrapeptides (CCK-2R): 3.5- to 19 fold
CCCC[C@@H](C(=O)N[C@@H](CC(=O)O)C(=O)N[C@@H](Cc1cccc2ccccc12)C(N)=O)N(C)C(=O)[C@H](Cc1c[nH]c2ccccc12)NC(=O)CNC(=O)[C@H](Cc1ccc(O)cc1)NC(=O)[C@H](C)NC(=O)CC[C@@H](NC(=O)CN1CCN(CC(=O)O)CCN(CC(=O)O)CCN(CC(=O)O)CC1)C(=O)O [[^nat/177Lu]Lu-DOTA-γ-MGS5, DOTA-D-γ-Glu-Ala-Tyr-Gly-Trp-(N-Me)Nle-Asp-1-Nal-NH2, metal not drawn, reference compound] ({DOTA-d(γGlu)}-AYGW[NMeNle]D[1Nal]-NH2) | -2.24 ± 0.04 | − 2.24 ± 0.04 | –
CCCC[C@@H](C(=O)N[C@@H](CC(=O)O)C(=O)N[C@@H](Cc1ccccc1)C(N)=O)N(C)C(=O)[C@@H](N)Cc1c[nH]c2ccccc12 [B4, H-Trp-(N-Me)Nle-Asp-Phe-NH2] (H-W[NMeNle]DF-NH2) | – | – | CCK-2R affinity (in words) (CCK-2R): CCK-2R affinities in the low nanomolar range
CCCC[C@@H](C(=O)N[C@@H](CC(=O)O)C(=O)N[C@@H](Cc1cccc2ccccc12)C(N)=O)N(C)C(=O)[C@@H](N)Cc1c[nH]c2ccccc12 [B3, H-Trp-(N-Me)Nle-Asp-1-Nal-NH2] (H-W[NMeNle]D[1Nal]-NH2) | – | – | CCK-2R affinity (in words) (CCK-2R): CCK-2R affinities in the low nanomolar range
CCCC[C@@H](C(=O)N[C@@H](CC(=O)O)C(=O)N[C@@H](Cc1ccc(O)cc1)C(N)=O)N(C)C(=O)[C@@H](N)Cc1c[nH]c2ccccc12 [B6, H-Trp-(N-Me)Nle-Asp-Tyr-NH2] (H-W[NMeNle]DY-NH2) | – | – | CCK-2R affinity (in words) (CCK-2R): CCK-2R affinities in the low nanomolar range
CCCC[C@H](NC(=O)[C@@H](N)Cc1c[nH]c2ccccc12)C(=O)N[C@@H](CC(=O)O)C(=O)N[C@@H](Cc1cccc2ccccc12)C(N)=O [B1, H-Trp-Nle-Asp-1-Nal-NH2] (H-W[Nle]D[1Nal]-NH2) | – | – | IC50 (CCK-2R; [2]): 297 ± 15 nM; fold elevated IC50 value versus N-methylated tetrapeptides (CCK-2R): 50 fold; CCK-2R affinity (in words) (CCK-2R): significant loss in CCK-2R affinity; also recorded: low CCK-2R affinity
CCCC[C@@H](C(=O)N[C@@H](CC(=O)O)C(=O)N[C@@H](Cc1cccc2ccccc12)C(N)=O)N(C)C(=O)[C@H](Cc1c[nH]c2ccccc12)NC(=O)CNC(=O)[C@H](Cc1ccc(O)cc1)NC(=O)CNC(=O)CNC(=O)CN1CCN(CC(=O)O)CCN(CC(=O)O)CCN(CC(=O)O)CC1 [[^nat/177Lu]Lu-DOTA-CCK-56, metal not drawn] ({DOTA}-GGYGW[NMeNle]D[1Nal]-NH2) | -1.38 ± 0.07 | − 1.9 to − 1.2 | –
CCCC[C@@H](C(=O)N[C@@H](CC(=O)O)C(=O)N[C@@H](Cc1c[nH]c2ccccc12)C(N)=O)N(C)C(=O)[C@@H](N)Cc1c[nH]c2ccccc12 [B7, H-Trp-(N-Me)Nle-Asp-Trp-NH2] (H-W[NMeNle]DW-NH2) | – | – | fold elevated IC50 value versus N-methylated tetrapeptides (CCK-2R): 3.5- to 19 fold
CCCC[C@@H](C(=O)N[C@@H](CC(=O)O)C(=O)N[C@@H](Cc1cccc2ccccc12)C(N)=O)N(C)C(=O)[C@H](Cc1c[nH]c2ccccc12)NC(=O)CNC(=O)[C@H](Cc1ccc(O)cc1)NC(=O)[C@H](C)NC(=O)CNC(=O)CN1CCN(CC(=O)O)CCN(CC(=O)O)CCN(CC(=O)O)CC1 [[^nat/177Lu]Lu-DOTA-CCK-59, metal not drawn] ({DOTA}-GAYGW[NMeNle]D[1Nal]-NH2) | -1.26 ± 0.08 | − 1.9 to − 1.2 | –
CCCC[C@@H](C(=O)N[C@@H](CC(=O)O)C(=O)N[C@@H](Cc1cccc2ccccc12)C(N)=O)N(C)C(=O)[C@H](Cc1c[nH]c2ccccc12)NC(=O)CNC(=O)[C@H](Cc1ccc(O)cc1)NC(=O)CNC(=O)CC[C@@H](NC(=O)CN1CCN(CC(=O)O)CCN(CC(=O)O)CCN(CC(=O)O)CC1)C(=O)O [[^nat/177Lu]Lu-DOTA-CCK-60, metal not drawn] ({DOTA-d(γGlu)}-GYGW[NMeNle]D[1Nal]-NH2) | -2.63 ± 0.05 | ‒2.7 to ‒2.1 | –

Second part, led by results:

logD [1] | logD7.4 [1] | SMILES | also measured
-1.94 ± 0.06 | − 1.9 to − 1.2 | CCCC[C@@H](C(=O)N[C@@H](CC(=O)O)C(=O)N[C@@H](Cc1cccc2ccccc12)C(N)=O)N(C)C(=O)[C@H](Cc1c[nH]c2ccccc12)NC(=O)CNC(=O)CNC(=O)[C@H](C)NC(=O)CNC(=O)CN1CCN(CC(=O)O)CCN(CC(=O)O)CCN(CC(=O)O)CC1 [[^nat/177Lu]Lu-DOTA-CCK-57, metal not drawn] ({DOTA}-GAGGW[NMeNle]D[1Nal]-NH2) | IC50 (CCK-2R; [2]): 9.67 ± 1.74 nM
-2.13 ± 0.05 | – | CCCC[C@@H](C(=O)N[C@@H](CC(=O)O)C(=O)N[C@@H](Cc1cccc2ccccc12)C(N)=O)N(C)C(=O)[C@H](Cc1c[nH]c2ccccc12)NC(=O)CCOCCOCCOCCOCCOCCNC(=O)CN1CCN(CC(=O)O)CCN(CC(=O)O)CCN(CC(=O)O)CC1 [[^nat/177Lu]Lu-DOTA-CCK-63, metal not drawn] ({DOTA-PEG5}-W[NMeNle]D[1Nal]-NH2) | IC50 (CCK-2R; [177Lu]Lu-DOTA-PP-F11N as reference, 37 °C, values in text, read-out: IC50 (CCK-2R affinity)): 8.8 ± 1.3 nM
-2.66 ± 0.06 | ‒2.7 to ‒2.1 | CCCC[C@@H](C(=O)N[C@@H](CC(=O)O)C(=O)N[C@@H](Cc1cccc2ccccc12)C(N)=O)N(C)C(=O)[C@H](Cc1c[nH]c2ccccc12)NC(=O)CNC(=O)CNC(=O)CNC(=O)CC[C@@H](NC(=O)CN1CCN(CC(=O)O)CCN(CC(=O)O)CCN(CC(=O)O)CC1)C(=O)O [[^nat/177Lu]Lu-DOTA-CCK-58, metal not drawn] ({DOTA-d(γGlu)}-GGGW[NMeNle]D[1Nal]-NH2) | –
-2.09 ± 0.07 | ‒2.7 to ‒2.1 | CCCC[C@@H](C(=O)N[C@@H](CC(=O)O)C(=O)N[C@@H](Cc1cccc2ccccc12)C(N)=O)N(C)C(=O)[C@H](Cc1c[nH]c2ccccc12)NC(=O)CNC(=O)CNC(=O)CNC(=O)CNC(=O)CN1CCN(CC(=O)O)CCN(CC(=O)O)CCN(CC(=O)O)CC1 [[^nat/177Lu]Lu-DOTA-CCK-55, metal not drawn] ({DOTA}-GGGGW[NMeNle]D[1Nal]-NH2) | –
-1.34 ± 0.08 | − 1.9 to − 1.2 | CCCC[C@@H](C(=O)N[C@@H](CC(=O)O)C(=O)N[C@@H](Cc1cccc2ccccc12)C(N)=O)N(C)C(=O)[C@H](Cc1c[nH]c2ccccc12)NC(=O)CNC(=O)CN1CCN(CC(=O)O)CCN(CC(=O)O)CCN(CC(=O)O)CC1 [[^nat/177Lu]Lu-DOTA-CCK-62, DOTA-Gly-Trp-(N-Me)Nle-Asp-1-Nal-NH2, metal not drawn] ({DOTA}-GW[NMeNle]D[1Nal]-NH2) | –
-2.56 ± 0.09 | ‒2.7 to ‒2.1 | CCCC[C@@H](C(=O)N[C@@H](CC(=O)O)C(=O)N[C@@H](Cc1cccc2ccccc12)C(N)=O)N(C)C(=O)[C@H](Cc1c[nH]c2ccccc12)NC(=O)CNC(=O)CNC(=O)[C@H](C)NC(=O)CC[C@@H](NC(=O)CN1CCN(CC(=O)O)CCN(CC(=O)O)CCN(CC(=O)O)CC1)C(=O)O [[^nat/177Lu]Lu-DOTA-CCK-61, metal not drawn] ({DOTA-d(γGlu)}-AGGW[NMeNle]D[1Nal]-NH2) | –
